{
  "source": "paper PMC6562844",
  "about": "“A Basic Study of Photodynamic Therapy with Glucose-Conjugated Chlorin e6 Using Mammary Carcinoma Xenografts” (Cancers, 2019)",
  "key": {"SNP cells [1]": {"tested_on": "SNP cells", "assay": "Photodynamic cytotoxicity in SNP cells (Cell Counting Kit-8)", "type": "cell-based, canine", "conditions": "24 h incubation, 650-nm laser 10 mW/cm^2, viability 24 h after PDT", "description": "We seeded 1 × 10^4 SNP cells into each well of 96-well plates (Corning Inc., New York, NY, USA) followed by overnight incubation. Cells were then incubated with various concentrations of G-Ce6 for 24 h at 37 °C. After washing with fresh media, the cells were irradiated with 650-nm light emitted by a semiconductor laser (Osada Electric Co., Ltd., Tokyo, Japan), using an optical fiber with a micro-lens delivery attachment (Pioneer Optics, Inc., Windsor Lock, CT, USA). PDT was performed at 10 mW/cm^2 in cells exposed to six concentrations of NPe6 and G-Ce6 (0, 0.064, 0.32, 1.6, 8.0, or 40.0 μg/mL) using four light doses (0, 1, 5, or 15 J/cm^2). The cells were then incubated for 24 h in the dark prior to examining cell viability using the Cell Counting Kit-8 (Dojindo, Kumamoto, Japan), according to the manufacturer’s instructions."}, "SNP cells [2]": {"tested_on": "SNP cells", "assay": "Effect of a pan-caspase inhibitor on G-Ce6-PDT-induced cell death", "type": "cell-based, canine", "conditions": "10 μM Z-VAD-FMK; 8 μg/mL G-Ce6; 5 J/cm^2", "description": "SNP cells were incubated with 8 μg/mL G-Ce6 for 24 h in the presence (10 μM) or absence of Z-VAD-FMK (Medical & Biological Laboratories Co. Ltd., Aichi, Japan), which is a pan-caspase inhibitor. After washing with fresh media, the cells were irradiated with 650-nm laser light (10 mW/cm^2, 5 J/cm^2) emitted by a semiconductor laser, using an optical fiber with a microlens delivery attachment. Apoptosis was assessed at 4 h after laser irradiation using the Muse Annexin V and Dead Cell Assay kit."}, "[3]": {"parameters": "method as in earlier work", "conditions": "cited from earlier work"}},
  "note": "Where a SMILES comes first, the peptide text is derived from it. The star is where a group is joined. Cbz = O=C(OCc1ccccc1)*; CH2F = FC*",
  "data": [
    {"compound": "C=Cc1c(C)c2cc3nc(c(CC(=O)N[C@@H](CC(=O)[O-])C(=O)[O-])c4[nH]c(cc5nc(cc1[nH]2)C(C)=C5CC)c(C)c4C(=O)[O-])[C@@H](CCC(=O)[O-])[C@@H]3C.[Na+].[Na+].[Na+].[Na+]", "note": "[NPe6, mono-L-aspartyl chlorin e6, reference compound]", "values": [
      {"measurement": "IC50 against SNP cells", "setting": "SNP cells [1]; light dose 1 J/cm^2", "value": 75.2, "unit": "µg/mL"},
      {"measurement": "IC50 against SNP cells", "setting": "SNP cells [1]; light dose 5 J/cm^2", "value": 30.4, "unit": "µg/mL"},
      {"measurement": "IC50 against SNP cells", "setting": "SNP cells [1]; light dose 15 J/cm^2", "value": 30.6, "unit": "µg/mL"}
    ]},
    {"compound": "COC(=O)C[C@H](NC(=O)[C@H](C)NC(=O)[C@@H](NC(=O)OCc1ccccc1)C(C)C)C(=O)CF", "note": "[Z-VAD-FMK, reference compound] (Cbz-Val-Ala-Asp(OMe)-CH2F)", "values": [
      {"measurement": "Influence on number of Annexin V-positive cells and cytotoxicity induced by G-Ce6-mediated PDT", "setting": "SNP cells [2]", "value": "did not influence"}
    ]},
    {"compound": "porfimer sodium", "values": [
      {"measurement": "AUC", "setting": "[3]", "value": "1670.2 ± 71.6", "unit": "µg·h/mL"},
      {"measurement": "T1/2", "setting": "[3]", "value": "44.22 ± 8.10", "unit": "h"}
    ]}
  ]
}
